# Source: patent US11066399B2, “Ferroportin inhibitors” (Vifor (International) AG, priority 2015, dated 2021)
# Marks after values point to notes of the source that are not given here.
# Experiments:
# ferroportin (Fpn) = biological target: T1, ferroportin (Fpn) (Mus musculus, UniProt Q9JHI9); assay: Hepcidin Internalization Assay (J774); format: cell-based; conditions: average (AVE) of multiple measurements; TMR-hepcidin 25 nM, J774 cells
# T1 construct: host or cells: J774 mouse macrophage cell line, Fe(III)-NTA induced
# T1 sequence (Q9JHI9 1-570): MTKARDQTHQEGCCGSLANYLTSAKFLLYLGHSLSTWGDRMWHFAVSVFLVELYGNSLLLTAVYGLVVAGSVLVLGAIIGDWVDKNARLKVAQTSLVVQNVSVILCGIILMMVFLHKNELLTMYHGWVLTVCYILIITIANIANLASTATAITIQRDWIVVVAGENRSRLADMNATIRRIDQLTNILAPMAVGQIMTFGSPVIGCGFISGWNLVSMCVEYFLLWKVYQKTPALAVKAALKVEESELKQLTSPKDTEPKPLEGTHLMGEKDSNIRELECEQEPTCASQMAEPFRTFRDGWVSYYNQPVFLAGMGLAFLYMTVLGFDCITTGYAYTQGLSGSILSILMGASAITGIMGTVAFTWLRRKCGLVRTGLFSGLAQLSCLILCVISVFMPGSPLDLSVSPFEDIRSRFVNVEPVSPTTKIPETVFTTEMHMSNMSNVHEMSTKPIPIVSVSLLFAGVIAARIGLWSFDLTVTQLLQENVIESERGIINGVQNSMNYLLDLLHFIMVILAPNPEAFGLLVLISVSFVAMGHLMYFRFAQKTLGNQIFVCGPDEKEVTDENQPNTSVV
# Excerpt: This cellular assay allows quantification of the binding of hepcidin to ferroportin (Fpn) through microscopic detection of internalization of a fluorescently labeled hepcidin into J774 cells. […] Binding of hepcidin to Fpn triggers internalization and degradation of both hepcidin and Fpn. However, the TMR (6-carboxytetramethylrhodamine) fluorophore attached to hepcidin remains associated with the cell after degradation of the hepcidin peptide backbone. Therefore, microscopic detection of cell-associated TMR fluorescence is a measure of hepcidin binding to Fpn and internalization of hepcidin and Fpn. If TMR-hepcidin is prevented from binding to Fpn, cellular TMR fluorescence remains low (Dürrenberger et al, 2013). The effect of small molecular weight Fpn inhibitor compounds in this assay was evaluated in vitro as described below.
# After overnight incubation, cells were washed 3 times with pre-warmed DMEM w/o phenol red, 30 μl/well of DMEM w/o phenol red was added after the final wash and 10 μl/well of dilution series of test compounds were added in triplicates. […] Cells were incubated in a total volume of 50 μl at 37° C. with 5% CO2 for 2 hours, then Hoechst 33342 dye was added to a final concentration of 0.5 μg/ml to stain nuclei and further incubated for 10 min. at 37° C. with 5% CO2. Cells were washed 3 times with PBS and fixed in 100 μl of 4% paraformaldehyde in PBS for 15 min. at room temperature. After removal of the paraformaldehyde solution, cells were washed 3 times with PBS leaving 100 μl per well and the plates were sealed with foil plate seal. TMR (530-550 nm excitation/575-625 nm emission/400 ms exposure time) and Hoechst 33342 (360-370 nm excitation/420-460 nm emission/10 ms exposure time) fluorescence images were acquired using a ScanR plate imager (Olympus) with a 20× high NA objective. Four pictures were acquired per well and fluorescence channel covering ca. 1500 cells per well. The acquired image data was analysed with the ScanR image analysis software. Image analysis included detection of nuclei (Hoechst 33342 fluorescence), identification of cell-associated regions, application of a virtual channel and thresholding for rolling-ball-type background reduction, followed by application of the Sum(Mean) algorithm to measure the TMR fluorescence associated with cells as a quantitative measure for internalized TMR-hepcidin. IC50 values were calculated with the Sum(Mean) raw data using “log(inhibitor) vs. response” curve fitting of Prism 5 software (GraphPad Software Inc., version 5.02).
# Hbb th3/+ mice = assay: Improvement of anemia, ineffective erythropoiesis and iron overload in a mouse model of β-thalassemia intermedia; format: in vivo; conditions: % change to vehicle; for Decrease in serum iron: dosed for 3 h
# Experimental: The efficacy of Fpn inhibitors was investigated using a mouse model of transfusion-independent β-thalassemia. Mice with heterozygous deletion of β1 and β2 globin genes (called Hbb th3/+ mice) develop transfusion-independent anemia, ineffective erythropoiesis, splenomegaly and secondary iron overload in spleen, liver and kidneys. […] Hbb th3/+ mice were dosed twice daily with either compound at 20 or 60 mg/kg or with methylcellulose (10 ml/kg, Sigma, Cat. 274429) as a vehicle. Between both doses mice had access to drinking water supplemented with 1 mM ^58Fe(II)-sulfate (Vifor Pharma, Batch No. ROR 3096) and 10 mM ascorbic acid (Sigma, Cat. 795437) for 6 h. […] Water without ^58Fe(II)-Sulfate and ascorbic acid was provided during the remaining 18 h. Dosing of Fpn inhibitors or vehicle followed by exposure to iron-containing water was repeated for 20 to 46 days in individual experiments.
# Additional hematologic parameters were measured in terminal blood using automated blood cell analyzer.
# The inefficient erythropoiesis of Hbb th3/+ mice causes excessive proliferation of erythroid precursors in spleen, leading to splenomegaly.
# Erythroferrone is produced by erythrocyte precursors proliferating massively in spleens of Hbb th3/+ mice as a consequence of extramedullar erythropoiesis.
# Increased iron demand due to inefficient erythropoiesis and chronically low hepcidin levels in patients with thalassemia causes organ iron loading and associated morbidities, such as hepatocellular carcinoma and heart failure (Rivella S. Haematologica, 2015). Hbb th3/+ mice absorb excessive amounts of iron as a consequence of inadequately low hepcidin levels relative to the high iron content in liver, spleen and kidney and increased ferroportin expression in duodenum (Gardenghi S., Blood, 2007).
# Additionally, reactive oxygen species (ROS) were detected in bone marrow cells using a fluorescent indicator, CM-H2DCFDA (Thermo Fisher Scientific, Cat. C6827).
# Table 10. Efficacy of Ferroportin inhibitors in a mouse model of thalassemia intermedia (Hbb th3/+ mice). […] Data are expressed as difference to the vehicle control group for hemoglobin and as % change to the vehicle control group for all other parameter shown
# b2m−/− mice = assay: Correction of hyperferremia in beta2-microglobulin deficient mice; format: in vivo, mouse; conditions: for effect on elevated serum iron: b2m−/− mice, 50 mg/kg p.o. for 3 h
# Experimental: Female and male homozygous b2m−/− mice were supplied from Jackson Laboratories (B6.129P2-B2mtm1Unc/J, Stock Number: 002087) at age of 6 to 7 weeks and fed standard diet (Harlan Provimi Kliba 3436) ad libitum. Age and gender matched WT C57BL/6 mice are supplied by Charles River. To study the acute effects of ferroportin (Fpn) inhibitors in iron overload b2m−/− mice were treated with compounds or the corresponding amount of vehicle at a volume of 10 ml/kg body weight. Fpn inhibitor compounds were formulated in 0.5% methylcellulose/water or 20% cremophor EL/water and dosed p.o. in mice at 50 mg/kg body weight. WT controls received only vehicle. Three hours later, mice were pre-terminally anesthetized in isoflurane chambers and blood was collected by retro-orbital bleeding. Mice were sacrificed by cervical dislocation and spleens, livers and duodena were harvested and used for biomarker analysis. All experiments have been performed in compliance with license approved by the responsible veterinarian authorities. Serum was isolated by centrifugation of blood into gel-containing microtainers (BD Biosciences) and serum iron was determined by the MULTIGENT Iron assay (Abbott Diagnostics, Cat. 6K95). Four to nine mice per group were used and one-way ANOVA with Bonferroni's multiple comparison test was applied to analyze the statistical differences between the experimental groups.
# Blood was collected 1 (#) or 3 (##) hours after oral administration of the indicated doses of Fpn inhibitors to beta2-microglobulin deficient mice and serum iron concentrations were measured. Relative reduction (%) of serum iron levels are shown, which were calculated by subtracting the average of serum iron values of animals dosed with the Fpn inhibitor from that of vehicle-treated animals. The difference in average serum iron values between vehicle and compound treated groups was then divided by the average of serum iron of the vehicle control group and listed as percentage.
# [1] = 20 mg/kg twice daily for 20-46 days
# [2] = 60 mg/kg twice daily for 20-46 days
# [3] = male b2m−/− mice, Dose 60 mg/kg oral, blood collected 3 (##) hours after dosing
smiles,measurement,setting,value
O=C(NCc1ncccc1F)c1cnc(C2CN(Cc3nc4ccccc4[nH]3)C2)o1 [Example 280],IC50,ferroportin (Fpn),50000 nM
O=C(NCc1ncccc1F)c1coc(CCNCCc2nc3ccccc3[nH]2)n1 [Example 127],Decrease in 58Fe spleen iron content,Hbb th3/+ mice; [1],43%
same,Decrease in RDW,Hbb th3/+ mice; [1],19%
same,Decrease in serum erythropoietin,Hbb th3/+ mice; [1],32%
same,Increase in hematocrit,Hbb th3/+ mice; [1],3%
same,Prevention of liver 58Fe loading,Hbb th3/+ mice; [1],39%
same,Decrease in serum iron,Hbb th3/+ mice; 20 mg/kg,68%
same,Decrease in 58Fe spleen iron content,Hbb th3/+ mice; [2],68%
same,Decrease in RDW,Hbb th3/+ mice; [2],25%
same,Decrease in serum erythropoietin,Hbb th3/+ mice; [2],33%
same,Increase in hematocrit,Hbb th3/+ mice; [2],20%
same,Prevention of liver 58Fe loading,Hbb th3/+ mice; [2],59%
same,Decrease in serum iron,Hbb th3/+ mice; 60 mg/kg,81%
same,Serum Iron Reduction (%),"b2m−/− mice; female b2m−/− mice, Dose 20 mg/kg oral, sampling time not marked",47*** %
same,Serum Iron Reduction (%),"b2m−/− mice; female b2m−/− mice, Dose 60 mg/kg oral, sampling time not marked",74*** %
same,Serum Iron Reduction (%),"b2m−/− mice; male b2m−/− mice, Dose 60 mg/kg oral, sampling time not marked",83** %
"O=C(NCc1ncccc1F)c1csc(CCNCCc2nc3ccccc3[nH]2)n1 [Example Compound No. 94, 2-(2-{[2-(1H-1,3-benzodiazol-2-yl)ethyl]amino}ethyl)-N-[(3-fluoropyridin-2-yl)methyl]-1,3-thiazole-4-carboxamide]",effect on elevated serum iron,b2m−/− mice,corrected the elevated serum iron to the levels observed in WT controls
O=C(NCc1ncccc1F)c1csc(CCN2Cc3nc4ccccc4n3CC2=O)n1 [Example 275],IC50,ferroportin (Fpn),26000 nM
O=C(NCc1ncccc1F)c1cnc(CCNCc2nc3ccccc3[nH]2)o1 [Example 4],IC50,ferroportin (Fpn),155 nM
O=C(NCc1ncccc1F)c1csc(CCNCCc2nc3ccccc3[nH]2)n1 [Example 94],Serum Iron Reduction (%),"b2m−/− mice; female b2m−/− mice, Dose 60 mg/kg oral, blood collected 3 (##) hours after dosing",47%
same,Serum Iron Reduction (%),b2m−/− mice; [3],67%
O=C(NCc1ncccc1F)c1noc(CCNCCc2nc3ccccc3[nH]2)n1 [Example 279],IC50,ferroportin (Fpn),2010 nM
O=C(NCc1ncccc1F)c1cnc(C2CN(CCc3nc4c(F)cccc4[nH]3)C2)o1 [Example 3],IC50,ferroportin (Fpn),170 nM
Cc1nc(CCNCCc2nc3ccccc3[nH]2)sc1C(=O)NCc1ncccc1F [Example 7],IC50,ferroportin (Fpn),400 nM
O=C(NCc1ccccn1)c1noc(CCNCCc2nc3ccccc3[nH]2)n1 [Example 278],IC50,ferroportin (Fpn),476 nM
"O=C(NCc1ncccc1F)c1csc(CCNCc2nc3ccccc3[nH]2)n1 [Example Compound No. 40, 2-{2-[(1H-1,3-benzodiazol-2-ylmethyl)amino]ethyl}-N-[(3-fluoropyridin-2-yl)methyl]-1,3-thiazole-4-carboxamide]",effect on elevated serum iron,b2m−/− mice,corrected the elevated serum iron to the levels observed in WT controls
O=C(NCc1ncccc1F)c1cnc(CCNCCc2nc3ccccc3[nH]2)s1 [Example 8],IC50,ferroportin (Fpn),240 nM
O=C(NCc1ncccc1F)c1coc(C2CN(CCc3nc4ccccc4[nH]3)C2)n1 [Example 208],Serum Iron Reduction (%),"b2m−/− mice; female b2m−/− mice, Dose 20 mg/kg oral, blood collected 3 (##) hours after dosing",9%
same,Serum Iron Reduction (%),"b2m−/− mice; male b2m−/− mice, Dose 20 mg/kg oral, blood collected 3 (##) hours after dosing",44%
same,Serum Iron Reduction (%),b2m−/− mice; [3],67** %
O=C(NCc1ncccc1F)c1cnc(C2CN(CCc3nc4cc(F)ccc4[nH]3)C2)o1 [Example 5],IC50,ferroportin (Fpn),63 nM
O=C(NCc1ncccc1F)c1csc(CCN2CCn3c(nc4ccccc43)C2)n1 [Example 276],IC50,ferroportin (Fpn),27200 nM
